Like-named read-outs stand apart in the source and are kept apart here.
Assays:
[1] = target: T1, flavin binding site of complex I (IF) (Rattus norvegicus, UniProt Q5XIH3); test: High-throughput screen: ROS production from flavin binding site of complex I (IF); format: biochemical; conditions: for inhibition at 2.5 µM: Table 7, read-out: IF; for inhibition at 2.5 µM / IF: percent change in ROS from DMSO controls
T1 construct: freshly isolated muscle mitochondria were assayed; from tissue; host or cells: rat skeletal muscle mitochondria (Wistar, Harlan Laboratories)
T1 sequence (Q5XIH3 21-464 limits assumed, one chain of several): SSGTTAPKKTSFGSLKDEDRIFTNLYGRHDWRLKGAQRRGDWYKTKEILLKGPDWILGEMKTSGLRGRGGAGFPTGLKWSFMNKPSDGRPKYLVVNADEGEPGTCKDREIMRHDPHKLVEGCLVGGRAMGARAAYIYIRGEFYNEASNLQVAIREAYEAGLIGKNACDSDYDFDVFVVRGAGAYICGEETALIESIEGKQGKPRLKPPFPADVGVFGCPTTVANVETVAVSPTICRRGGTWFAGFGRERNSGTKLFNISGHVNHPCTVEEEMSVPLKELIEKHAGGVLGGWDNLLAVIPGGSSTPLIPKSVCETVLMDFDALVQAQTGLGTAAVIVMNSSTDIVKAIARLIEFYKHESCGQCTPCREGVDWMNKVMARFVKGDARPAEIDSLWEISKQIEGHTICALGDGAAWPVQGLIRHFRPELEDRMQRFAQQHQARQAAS
Method: (§1) Skeletal muscle mitochondria were isolated from 5-8 week old female Wistar rats (Harlan Laboratories). Minced muscle was homogenized in buffer containing bacterial protease Type VIII prior to differential centrifugation to separate mitochondria from other tissue components. Unless otherwise stated, freshly isolated muscle mitochondria were assayed in buffer containing 120 mM KCl, 5 mM HEPES, 1 mM EGTA, 0.3% (w/v) bovine serum albumin. Where indicated, CaCl2 was added to yield a final free concentration of 250 nM calcium at pH 7.0 at 37° C.
Master screening plates were prepared using a Biomek FX liquid handling workstation (Beckman) to transfer 1 μL of each compound into individual wells on 96-well storage plates (80 compounds per plate). […] Just prior to use, plates were brought to room temperature and diluted 300-fold with standard buffer (13.3X=33.3 μM). To monitor the performance of each assay throughout screening and to provide intra-plate normalization reference points, DMSO negative controls and known mitochondrial inhibitor positive controls were included on each Master compound plate.
(§2) Total amounts of superoxide and H2O2 production were determined fluorometrically as H2O2, without distinguishing between them, in the presence of exogenous superoxide dismutase (25 units/mL final), horseradish peroxidase (1 unit/mL final), and Amplex UltraRed (25 μM final) as described (Affourtit, C. et al. (2012) Measurement of proton leak and electron leak in isolated mitochondria. Methods Mol. Biol. 810: 165-82). Just prior to use, a bulk 3.3X solution was made in standard buffer and distributed into a 2 mL deep well 96-well transfer plate.
To assess the effects of a compound on ROS production from the flavin binding site of complex I (IF), Start Solution containing 5 mM glutamate, 5 mM malate and 4 μM rotenone was distributed into standard 96-well transfer plates. A Biomek FX workstation was programmed to dispense solutions into black 96-well assay plates. Solutions were dispensed to all assay plates in the following order: ROS Detection solution described in Example 3, Mitochondria solution described in Example 1 to a final concentration of 0.3 mg/ml, and Compound dilutions described in Example 2. Duplicate assay plates were made and each was initiated by the addition of 3.3X Start solution containing 5 mM glutamate, 5 mM malate and 4 μM rotenone. Plates were incubated in the dark at room temperature for 30-40 minutes before acquiring endpoint fluorescence using a Victor 3V plate reader (Perkin Elmer) equipped with 550/590 nm excitation/emission filters.
The fluorescence values in each well were scaled as the percent change from the intra-plate DMSO controls with the appropriate inhibitor positive controls defined as −100%. Following initial scaling, intra-plate normalized values were subjected to Tukey's two-way median polish to remove row and column dependent positional effects (Malo, N. et al. (2006) Statistical practice in high-throughput screening data analysis. Nat. Biotechnol. 24(2): 167-75).

[2] = target: T2, glycerol-3-phosphate dehydrogenase (GPDH) (Rattus norvegicus, UniProt P35571); test: High-throughput screen: ROS production from glycerol-3-phosphate dehydrogenase (GPDH); format: biochemical; parameters: inhibition: dose or concentration left out as unconfirmed; conditions: for inhibition: Table 7; for inhibition / GPDH: percent change in ROS from DMSO controls
T2 construct: The activity of GPDH in intact mitochondria (0.3 mg/mL) was measured; from tissue; host or cells: rat skeletal muscle mitochondria (Wistar, Harlan Laboratories)
T2 sequence (P35571 43-727): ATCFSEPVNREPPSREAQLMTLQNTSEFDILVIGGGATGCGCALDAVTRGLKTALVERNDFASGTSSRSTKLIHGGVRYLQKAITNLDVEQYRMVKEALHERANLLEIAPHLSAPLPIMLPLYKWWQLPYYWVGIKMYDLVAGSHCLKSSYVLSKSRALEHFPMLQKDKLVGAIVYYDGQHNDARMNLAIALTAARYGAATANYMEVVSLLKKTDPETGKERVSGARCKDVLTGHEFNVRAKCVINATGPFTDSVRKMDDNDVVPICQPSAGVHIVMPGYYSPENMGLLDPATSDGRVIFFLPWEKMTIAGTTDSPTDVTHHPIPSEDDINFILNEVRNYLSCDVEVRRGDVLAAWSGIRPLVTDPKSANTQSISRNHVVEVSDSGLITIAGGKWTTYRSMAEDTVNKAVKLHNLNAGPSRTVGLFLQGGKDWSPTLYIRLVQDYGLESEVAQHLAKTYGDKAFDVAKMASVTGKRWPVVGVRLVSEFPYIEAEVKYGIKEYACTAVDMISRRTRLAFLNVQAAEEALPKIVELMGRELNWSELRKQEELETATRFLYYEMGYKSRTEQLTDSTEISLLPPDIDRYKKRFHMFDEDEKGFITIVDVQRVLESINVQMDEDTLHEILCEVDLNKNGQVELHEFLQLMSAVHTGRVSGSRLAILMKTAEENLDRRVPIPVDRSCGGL

[3] = tested on: ubiquinone binding site of complex I (IQ); test: High-throughput screen: ROS production from ubiquinone binding site of complex I (IQ), isolated skeletal muscle mitochondria; format: biochemical, rat; conditions: for % Reduction in ROS production (IQ): Table 2, 5 mM succinate, compounds 2.5 μM, percent change from DMSO, positive control −100%; for IQ: percent change in ROS from DMSO controls
Method: as §1
Compounds (10 mM in DMSO) were randomly selected from a library of 24,000 compounds obtained from ChemBridge and curated by the lab of Robert Hughes at the Buck Institute. Master screening plates were prepared using a Biomek FX liquid handling workstation (Beckman) to transfer 1 μL of each compound into individual wells on 96-well storage plates (80 compounds per plate). Master plates were sealed with foil and stored at −80° C. Just prior to use, plates were brought to room temperature and diluted 300-fold with standard buffer (13.3X=33.3 μM). To monitor the performance of each assay throughout screening and to provide intra-plate normalization reference points, DMSO negative controls and known mitochondrial inhibitor positive controls were included on each Master compound plate.
as §2
To assess the effects of a compound on ROS production from the ubiquinone binding site of complex I (IQ), Start Solution containing 5 mM succinate was distributed into standard 96-well transfer plates. A Biomek FX workstation was programmed to dispense solutions into black 96-well assay plates. Solutions were dispensed to all assay plates in the following order: ROS Detection solution described in Example 3, Mitochondria solution described in Example 1 to a final concentration of 0.1 mg/ml, and Compound dilutions described in Example 2. Duplicate assay plates were made and each was initiated by the addition of 3.3X Start solution containing 5 mM succinate. Plates were incubated in the dark at room temperature for 30-40 minutes before acquiring endpoint fluorescence using a Victor 3V plate reader (Perkin Elmer) equipped with 550/590 nm excitation/emission filters.
The fluorescence values in each well were scaled as the percent change from the intra-plate DMSO controls with the appropriate inhibitor positive controls defined as −100%. Following initial scaling, intra-plate normalized values were subjected to Tukey's two-way median polish to remove row and column dependent positional effects (Malo et al, 2006).

[4] = target: T3, succinate dehydrogenase/complex II (SDH) (Rattus norvegicus, UniProt P21913+Q641Z9+Q6PCT8+Q920L2); test: High-throughput screen: ROS production from succinate dehydrogenase/complex II (SDH); format: biochemical; conditions: percent change in ROS from DMSO controls; for inhibition at 2.5 µM: Table 7
T3 construct: freshly isolated muscle mitochondria were assayed; from tissue; host or cells: rat skeletal muscle mitochondria (Wistar, Harlan Laboratories)
T3 sequence (Q920L2 35-656): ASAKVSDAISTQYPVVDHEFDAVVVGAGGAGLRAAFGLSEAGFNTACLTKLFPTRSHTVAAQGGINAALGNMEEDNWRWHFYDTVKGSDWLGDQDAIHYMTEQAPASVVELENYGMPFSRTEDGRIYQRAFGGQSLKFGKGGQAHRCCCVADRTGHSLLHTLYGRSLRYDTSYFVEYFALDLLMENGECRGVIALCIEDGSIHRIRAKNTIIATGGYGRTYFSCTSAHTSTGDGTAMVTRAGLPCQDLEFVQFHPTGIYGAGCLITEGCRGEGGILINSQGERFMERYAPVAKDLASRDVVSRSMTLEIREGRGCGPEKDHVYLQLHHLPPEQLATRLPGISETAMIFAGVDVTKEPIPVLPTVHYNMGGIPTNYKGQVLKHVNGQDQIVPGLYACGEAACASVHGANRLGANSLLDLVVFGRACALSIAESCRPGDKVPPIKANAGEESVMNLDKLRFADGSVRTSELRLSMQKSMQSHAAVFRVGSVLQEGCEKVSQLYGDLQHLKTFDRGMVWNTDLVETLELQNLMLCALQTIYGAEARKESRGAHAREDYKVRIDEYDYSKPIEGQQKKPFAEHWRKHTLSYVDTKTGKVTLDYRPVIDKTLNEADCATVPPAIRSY
T3 sequence (P21913 31-282): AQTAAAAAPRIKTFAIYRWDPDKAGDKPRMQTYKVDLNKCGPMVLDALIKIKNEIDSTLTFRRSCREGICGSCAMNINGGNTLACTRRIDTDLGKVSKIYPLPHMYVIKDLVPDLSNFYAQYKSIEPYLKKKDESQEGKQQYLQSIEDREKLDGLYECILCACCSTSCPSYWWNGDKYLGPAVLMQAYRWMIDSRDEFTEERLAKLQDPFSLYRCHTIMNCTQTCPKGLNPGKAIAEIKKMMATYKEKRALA
T3 sequence (Q641Z9 30-169 limits assumed): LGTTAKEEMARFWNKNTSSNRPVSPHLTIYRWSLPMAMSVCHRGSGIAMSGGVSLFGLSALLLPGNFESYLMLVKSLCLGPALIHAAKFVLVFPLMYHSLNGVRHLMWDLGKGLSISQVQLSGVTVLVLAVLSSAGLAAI
T3 sequence (Q6PCT8 57-159): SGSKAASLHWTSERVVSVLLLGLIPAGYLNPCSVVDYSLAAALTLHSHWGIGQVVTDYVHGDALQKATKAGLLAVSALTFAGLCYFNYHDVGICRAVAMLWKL

[5] = target: T4, outer ubiquinone binding site of complex III (IIIQO) (Rattus norvegicus, UniProt P00159+P20788); test: High-throughput screen: ROS production from outer ubiquinone binding site of complex III (IIIQO); format: biochemical; conditions: for inhibition at 2.5 µM / IIIQO: percent change in ROS from DMSO controls; for IIIQO: Table 8
T4 construct: freshly isolated muscle mitochondria were assayed; from tissue; host or cells: rat skeletal muscle mitochondria (Wistar, Harlan Laboratories)

[6] = tested on: mitochondrial membrane potential (ΔΨm); test: Membrane potential (ΔΨm) counterscreen with TMRM; conditions: malate, nigericin

Structure (SMILES) | inhibition at 2.5 µM [1] | IF ([1]; Table 8) | IF ([1]; Table 9) | inhibition [2] | GPDH ([2]; Table 8) | GPDH ([2]; Table 9) | % Reduction in ROS production (IQ) [3] | IQ ([3]; Table 7) | IQ ([3]; Table 8) | IQ ([3]; Table 9) | inhibition at 2.5 µM [4] | SDH ([4]; Table 8) | SDH ([4]; Table 9) | inhibition at 2.5 µM ([5]; Table 7, read-out: IIIQO) | IIIQO [5] | inhibition at 2.5 µM ([5]; Table 9, read-out: IIIQo) | ΔΨm ([6]; Table 8, glutamate) | ΔΨm ([6]; Table 9, glutamate) | also measured
CC(C)(C)NS(=O)(=O)c1ccc2c(c1)C(=O)c1ccccc1C2=O [Compound 1] | -10% | 10.0 | 10.0 | -4.1% | 4.1 | 4.1 | −60.6% | −60.6 | −60.6 | −60.6 | 8.2% | −8.2 | −8.2 | -1% | 1.0 | -1% | −1.5 | −1.5 | –
CCSC1=C(C#N)C2(CCCC2)C(C#N)C(=O)N1 (stereo not shown) [Compound 2] | 7% | −7.0 | −7.0 | 0.1% | −0.1 | −0.1 | −52.5% | −52.5 | −52.5 | −52.5 | -2.6% | 2.6 | 2.6 | -1.9% | 1.9 | -1.9% | −3.4 | −3.4 | –
CC(C)(C)C1=NN(c2c(Cl)cc(Cl)cc2Cl)C(=O)C1 [Compound 3] | -0.5% | 0.5 | 0.5 | 0.1% | −0.1 | −0.1 | −52.4% | −52.4 | −52.4 | −52.4 | 6.8% | −6.8 | −6.8 | -1% | 1.0 | -1% | 1.2 | 1.2 | –
CC(C)Cc1ccc(C(C)C(=O)Nc2ccccc2O)cc1 (stereo not shown) [Compound 5] | -0.2% | 0.2 | 0.2 | -0.7% | 0.7 | 0.7 | −40.0% | −40.0 | −40.0 | −40.0 | -2.3% | 2.3 | 2.3 | 3.6% | −3.6 | 3.6% | −3.5 | −3.5 | –
Cc1ccc(NS(=O)(=O)c2ccc(C3CCCCC3)cc2)cc1 [Compound 6] | -3.6% | 3.6 | 3.6 | 2.3% | −2.3 | −2.3 | −38.6% | −38.6 | −38.6 | −38.6 | 1.1% | −1.1 | −1.1 | 3.4% | −3.4 | 3.4% | 0.0 | 0.0 | –
C=CCSc1nc(N)c(C#N)c(CC)c1C#N [Compound 7] | -1.3% | 1.3 | 1.3 | -5.6% | 5.6 | 5.6 | −36.5% | −36.5 | −36.5 | −36.5 | -2.1% | 2.1 | 2.1 | -9.2% | 9.2 | -9.2% | −0.5 | −0.5 | –
O=S(=O)(Nc1ccc(Br)cc1)c1ccc(C2CCCCC2)cc1 [Compound 8] | 4.2% | −4.2 | −4.2 | 1.8% | −1.8 | −1.8 | −36.3% | −36.3 | −36.3 | −36.3 | -0.4% | 0.4 | 0.4 | -7.6% | 7.6 | -7.6% | −0.3 | −0.3 | –
Cc1ccccc1NS(=O)(=O)c1ccc(C2CCCCC2)cc1 [Compound 9] | -0.4% | 0.4 | 0.4 | -1% | 1.0 | 1.0 | −31.2% | −31.2 | −31.2 | −31.2 | -0.3% | 0.3 | 0.3 | 2.7% | −2.7 | 2.7% | −0.1 | −0.1 | –
CC(=O)Nc1ccc(S(=O)(=O)Nc2cccc(C)c2)cc1 [Compound 10] | -3.3% | 3.3 | 3.3 | 4.3% | −4.3 | −4.3 | −24.1% | −24.1 | −24.1 | −24.1 | -1% | 1.0 | 1.0 | 2.8% | −2.8 | 2.8% | −0.2 | −0.2 | –
COc1ccc(NS(=O)(=O)c2cccc(C(=O)Nc3ccc(C)cc3)c2)cc1 [Compound 11] | -3.3% | 3.3 | 3.3 | 5% | −5.0 | −5.0 | −23.8% | −23.8 | −23.8 | −23.8 | 0.2% | −0.2 | −0.2 | 1.9% | −1.9 | 1.9% | −0.4 | −0.4 | –
Cc1ccccc1NS(=O)(=O)c1ccc(-c2ccc(S(=O)(=O)Nc3ccccc3C)cc2)cc1 [Compound 12] | 1.7% | −1.7 | −1.7 | -0.5% | 0.5 | 0.5 | −20.7% | −20.7 | −20.7 | −20.7 | 0.1% | −0.1 | −0.1 | -0.2% | 0.2 | -0.2% | −0.5 | −0.5 | –
CCN1CCN(C/C=C/c2ccc(N(C)C)cc2)CC1 [Compound 48] | 6.5% | −6.5 | −6.5 | 13.4% | −13.4 | −13.4 | – | −2.9 | −2.9 | −2.9 | – | – | – | 5.7% | −5.7 | 5.7% | 0.0 | 0.0 | inhibition at 2.5 µM ([2]; Table 6, 25 mM glycerol phosphate, rotenone, antimycin A, malonate, myxothiazol, compounds 2.5 μM, scaled to IQ positive controls, read-out: % Reduction in ROS Production (GPDH)): 13.4%
CCCCN(Cc1ccccc1)Cc1cc(OC)c(OC)cc1[N+](=O)[O-] [Compound 79] | – | −17 | – | – | −1 | – | – | – | 0 | – | – | – | – | – | −19 | – | 1 | – | % Reduction in ROS production (IF) ([1]; Table 3, 5 mM glutamate, 5 mM malate, 4 μM rotenone, compounds 2.5 μM, percent change from DMSO, positive control −100%): −17%; % Reduction in ROS production (IIIQO) ([5]; Table 4, 5 mM succinate, 4 μM rotenone, 2.5 μM antimycin A, compounds 2.5 μM, percent change from DMSO): −19%
